Results published in patent US9976183B2, “Biomarkers for cancers responsive to modulators of HEC1 activity” (TAIVEX THERAPEUTICS CORPORATION, priority 2011, dated 2018).
Values belong to the compound of their own block, whether it stands above or below them.

Tests used:
Assay type in all cases: cell-based
[1] = tested on: HeLa; assay: Drug sensitivity, MTS cell viability assay (GI50); conditions: Homo sapiens, 96 hours
Procedure, shortened: (§1)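 Compound added 24 h after seeding, in triplicate, in low-glucose DME with 10% FBS. After 96 h of exposure, viability was read by MTS. Growth inhibition (%) = [1 − test/control] × 100, and GI50 taken from concentration-response curves by linear regression.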

[2] = tested on: COLO205; assay: Drug sensitivity, MTS cell viability assay (GI50); conditions: Homo sapiens, COLO 205, COLO205, 96 hours
Procedure, shortened: as §1

[3] = tested on: MOLM-13; assay: Drug sensitivity, MTS cell viability assay (GI50); conditions: Homo sapiens, MOLM-13, 96 hours
Procedure, shortened: as §1

[4] = tested on: MOLT-4; assay: Drug sensitivity, MTS cell viability assay (GI50); conditions: Homo sapiens, MOLT-4, 96 hours
Procedure, shortened: as §1

[5] = tested on: HepG2; assay: Drug sensitivity, MTS cell viability assay (GI50); conditions: Homo sapiens; HepG2, 96 hours, MTS
Procedure, shortened: as §1

[6] = tested on: MDA-MB-361; assay: Drug sensitivity, MTS cell viability assay (GI50); conditions: Homo sapiens, MDA-MB-361, 96 hours
Procedure, shortened: as §1

[7] = tested on: U-937; assay: Drug sensitivity, MTS cell viability assay (GI50); conditions: Homo sapiens, U-937, 96 hours
Procedure, shortened: as §1

[8] = tested on: ZR-75-30; assay: Drug sensitivity, MTS cell viability assay (GI50); conditions: Homo sapiens, ZR-75-30, 96 hours
Procedure, shortened: as §1

[9] = tested on: RPMI8226; assay: Drug sensitivity, MTS cell viability assay (GI50); conditions: Homo sapiens, RPMI-8226, RPMI8226, 96 hours
Procedure, shortened: as §1

[10] = tested on: MV4-11; assay: Drug sensitivity, MTS cell viability assay (GI50); conditions: Homo sapiens, MV4-11, 96 hours
Procedure, shortened: as §1

[11] = tested on: NCI-H520; assay: Drug sensitivity, MTS cell viability assay (GI50); conditions: Homo sapiens, NCI-H520, 96 hours
Procedure, shortened: as §1

[12] = tested on: PC3; assay: Drug sensitivity, MTS cell viability assay (GI50); conditions: Homo sapiens, PC-3, PC3, 96 hours
Procedure, shortened: as §1

[13] = tested on: HeLa; assay: Synergy of Hec1 inhibitor with cytotoxic drug (combination index, MTS)
Description: (§2) Synergy: GI50s for selected drugs were determined and used to calculate a concentration ratio for use synergy assays with Hec1 inhibitors. Cells were treated with drugs 24 hours after being seeded in appropriate seeding numbers into 96 well plates containing low glucose DME with 10% FBS. […] Cell viability was determined by MTS assay using a CellTiter 96® Aqueous non-radioactive cell proliferation assay system (Promega, Madison, Wis. 53711 USA) according to the manufacturer's instructions. Optical density was determined using a Bio-Tek 340 spectrophotometer (Bio-Tek, Winooski, Vt. 05404) and were then processed using Excel (Microsoft, Redmond, Wash. 98052-7329) and GraphPad Prism 5 linear regression software (GraphPad Software, La Jolla, Calif. 92037 USA) to determine concentration-response curves for calculating relative GI50s. Synergy was determined by calculating a combination index value using the formula CI (combination index)=(CA,X/ICx,A)+(CB,X/ICx,B), where CA,X and CB,X are the concentrations of drug A and drug B used in combination to achieve x % drug effect. ICx,A and ICx,B are the concentrations for single agents to achieve the same effect.
Hec1 inhibitor-responsive cancer cells used for screening were treated with a mixture of Hec1 inhibitor and select anti-cancer drug at appropriate concentration ratios and evaluated for cell viability.

[14] = tested on: MEX-SA/Dx5; assay: as above; conditions: in combination with paclitaxel
Description: as §2
(§3) Drugs that can target pathways unreached by other current anti-cancer drugs have even better clinical potential to be incorporated into current therapeutic regimens. […] Hec1 inhibitor-responsive cancer cells used for screening were treated with a mixture of Hec1 inhibitor and select anti-cancer drug at appropriate concentration ratios and evaluated for cell viability. […] Table 9 summarizes the results of synergism studies on a number of cancer derived cell lines treated with Hec1 inhibitor 110001 in combination cytotoxic drugs.

[15] = tested on: K562R; assay: as above; conditions: in combination with paclitaxel
Description: as §2, §3

[16] = tested on: NCI/ADR-RES; assay: as above; conditions: in combination with paclitaxel
Description: as §2, §3

GI50 [1]: 15.8 nM
GI50 [2]: 40.2 nM
GI50 [3]: 315 nM
GI50 [4]: > 30 µM
GI50 [5]: 273 nM
GI50 [6]: > 10 µM
GI50 [7]: 22 nM
GI50 [9]: 27.2 nM
GI50 [10]: 231 nM
GI50 [11]: 67.9 nM
GI50 [12]: 60 nM
SMILES: COc1ccc(Oc2cc(C)c(-c3csc(NC(=O)c4ccncc4)n3)c(C)c2)cc1 [compound 101001, N-(4-(4-(4-methoxyphenoxy)-2,6-dimethylphenyl)thiazol-2-yl)isonicotinamide]
GI50 [8]: 76.8 nM

SMILES: COCCOc1cnc(Sc2cc(C)c(-c3csc(NC(=O)c4ccncc4)n3)c(C)c2)cn1 [compound 110095, N-(4-(4-(5-(2-methoxyethoxy)pyrazin-2-ylthio)-2,6-dimethylphenyl)thiazol-2-yl)isonicotinamide]
Combination Index ([13]; in combination with Taxol): 1.22
Combination Index ([13]; in combination with doxorubicin): 1.55
Combination Index ([13]; in combination with topotecan): 1.90
Combination Index [14]: 1.41
Synergy [14]: No
Combination Index [15]: 0.65
Synergy [15]: Yes
Combination Index [16]: 0.82
Synergy [16]: Yes
